Source: US20070148154A1, “Use of superoxide dismutase mimetics and reductase gultatione in the form of anticancer drugs” (UNIVERSITE RENE DESCARTES (PARIS V), priority 2004, published 2007)

What was measured:
[1] = system: A549 tumor cells; assay: In vitro viability test (MTT); format: cell-based, human; conditions: for viability reduced by: 400 μM, 48 h
Protocol: (§4) In vitro viability tests, in response to the treatment with NAC, CuDIPS, MnTBAP or MnDPDP, were carried out on the cell lines of Example 1 and on normal human leukocytes. The latter were obtained from normal volunteers, after informed consent, by taking venous blood samples collected on an anticoagulant (lithium-heparinate). The red blood cells were lysed by osmotic shock using a hypotonic solution of potassium acetate and the leukocytes were cultured under the conditions described in Example 1.
(§5) For the viability test, the cells (2×10^4 cells/well) were seeded into 96-well plates (COSTAR, Corning Inc. NY, USA) and incubated for 48 hours in complete medium supplemented with increasing concentrations, from 0 to 400 μm, of NAC, of MnTBAP, of CuDIPS or of MnDPDP. The cell viability was evaluated by reduction of a methylthiazoletetrazolium salt (MTT; SIGMA) into formazan. The cells were exposed to 20 μl of MTT (5 mg/ml in PBS) and incubated for 4 h at 37° C. 150 μl of medium were then removed from each well and the reaction was visualized by the addition of 100 μl of DMSO (SIGMA). The absorbance was analyzed for each well at 550 nm and at 630 nm with an ELISA plate reader. The number of viable cells was determined by the difference between the absorbance at 550 nm and the absorbance at 630 nm.
(§6) The viability tests were carried out on the CT26, Hepa 16 and A549 tumor lines, and on normal human leukocytes, according to the protocol described in Example 2.

[2] = system: Hepa 1-6 tumor cells; assay: In vitro viability test (MTT); format: cell-based, mouse; conditions: for viability reduced by: 400 μM, 48 h
Protocol: as §4, §5, §6

[3] = system: normal human leukocytes; assay: In vitro viability test (MTT); conditions: for decrease in viability of normal leukocytes, antitumor agent alone: no antioxidant; for effect on viability of normal human leukocytes / decrease in cell viability, maximum: 0 to 400 μM, 48 h; for effect on the cytotoxic effect of taxol on normal leukocytes: with 20 μM taxol; for effect on the cytotoxic effect of taxol on normal leukocytes / effect on the cytotoxic effect of oxaliplatin on normal leukocytes / effect on the cytotoxic effect of 5-FU on normal leukocytes: increasing concentrations of antioxidant; for effect on the cytotoxic effect of oxaliplatin on normal leukocytes: with 1 mM oxaliplatin; for effect on the cytotoxic effect of 5-FU on normal leukocytes: with 40 mM 5-FU
Protocol: as §4, §5, §6

[4] = system: Hepa 1-6 (mouse liver hepatoma); assay: In vitro cell proliferation assay ([3H]-thymidine); format: cell-based; conditions: for decrease in tumor cell proliferation, antitumor agent alone: no antioxidant
Protocol: (§7) In vitro cell proliferation assays were carried out on the following cell lines: CT26 (mouse colon carcinoma, ATCC (American Type Culture Collection) No. 2638), Hepa 1-6 (mouse liver hepatoma, ATCC No. 1830), A549 (human lung carcinoma, ATCC No. 185).
(§8) The cell proliferation is determined by incubating the cells for 16 hours with [^3H]-thymidine (1 μCi/well).

[5] = system: A549 (human lung carcinoma); assay: In vitro cell proliferation assay ([3H]-thymidine); format: cell-based; conditions: for decrease in tumor cell proliferation, antitumor agent alone: no antioxidant
Protocol: as §7, §8

[6] = system: CT26 (mouse colon carcinoma); assay: In vitro cell proliferation assay ([3H]-thymidine); format: cell-based; conditions: for decrease in tumor cell proliferation, antitumor agent alone: no antioxidant
Protocol: as §7, §8

[7] = system: CT26 tumor cells; assay: In vitro viability test (MTT); format: cell-based, mouse; conditions: for viability reduced by: 400 μM, 48 h
Protocol: as §4, §5, §6

[8] = system: plasmid pcDNA3.1; assay: Plasmid DNA alteration (agarose gel electrophoresis, densitometry); conditions: for effect on the structure of plasmid DNA (form I / II / III): 37° C., 24 h, SOD mimetics 5 μM, oxaliplatin maximum at DNA/oxaliplatin ratio 0.5
Protocol: The purified plasmid pcDNA3.1 (INVITROGEN) was used to analyze the potential DNA alterations in response to the addition of molecules used in cancer chemotherapy in the presence, or in the absence, of antioxidant enzyme modulators. This DNA was then stored at −20° C. in 10 mM TRIS, 1 mM EDTA until its use.
The plasmid DNA was incubated with oxaliplatin at a molar ratio of 0.50 in a final volume of 50 μl. MnTBAP (5 μM), CuDIPS (5 μM), mangafodipir (5 μM) or NAC (5 mM) were then added to the solution. The production of superoxide anion was realized by the addition of 200 μM xanthine (SIGMA) and 1 U of xanthine oxidase (SIGMA). The incubation was carried out in the dark at 37° C. for 24 h. At the end of the incubation period, 10 μl aliquots were subjected to 0.8% agarose gel electrophoresis and detected by ethidium bromide staining. The gels were then analyzed by densitometry (VILBER LOURMAT, Marnes-la-Vallée, France).

[9] = system: Hepa 1-6, CT26 and A549 tumor cells; assay: In vitro viability test (MTT), result stated for the tumor lines together; conditions: for effect on tumor cell viability: 0 to 400 μM, 48 h; for effect on the cytotoxic effect of oxaliplatin on tumor cells: with 10 μM oxaliplatin; for effect on the cytotoxic effect of oxaliplatin on tumor cells / effect on the cytotoxic activity of taxol on tumor cells / effect on the cytotoxic activity of 5-FU on tumor cells: increasing concentrations of antioxidant; for effect on the cytotoxic activity of taxol on tumor cells: with 10 μM taxol; for effect on the cytotoxic activity of 5-FU on tumor cells: with 50 μM 5-FU
Protocol: In vitro viability tests, in response to the treatment with NAC, CuDIPS, MnTBAP or MnDPDP, were carried out on the cell lines of Example 1 and on normal human leukocytes.
as §5
For each of these molecules, cell proliferation assays and cell viability tests were carried out, in the absence of antioxidant molecules, or in the presence of increasing concentrations of NAC, of MnTBAP, of CuDIPS or of MnDPDP.
as §6

[10] = system: Hepa 1-6 cells in C57BL/6 mice; assay: In vivo antitumor activity, subcutaneous Hepa 1-6 tumors; design: species or system mouse; conditions: for effect on the inhibitory (antitumor) effect of oxaliplatin on tumor growth: mice treated with oxaliplatin 20 mg/kg, NAC 150 mg/kg, SOD mimetics 10 mg/kg i.p.; for decrease in tumor volume at one month compared with the nontreated animals: no oxaliplatin
Protocol: (§1) The in vivo antitumor activity of various antioxidant treatments was estimated. For these experiments, female six- to eight-week-old BALB/c (for the injection of CT-26 tumor cells) or C57/BL6 (for the injection of Hepa 1-6 tumor cells) mice were used (IFFA CREDO, L'Arbresles, France). Two million tumor cells were injected into the back of the animals subcutaneously. When the size of the tumor reached 200 to 500 mm^3, the animals were given a single injection of 20 mg/kg of oxaliplatin (ELOXATIN®) or of a saline solution.
(§2) The mice were then treated intraperitoneally, two hours after the injection of oxaliplatin or of saline solution, with 10 mg/kg of mangafodipir, of MnTBAP or of CuDIPS, or with 150 mg/kg of NAC, or with a saline solution. The injection of the various antioxidants was continued for one month (three injections per week at the same doses). A group of mice inoculated with tumor cells was not treated.
(§3) The size of the tumors was measured every three days. The tumor volume was calculated as follows: VT (mm^3)=(L×W^2)/2, where L is the longest dimension and W the shortest dimension of the tumor in mm. Fifteen mice were included in each group.

[11] = system: CT26 carcinoma tumor cells in BALB/c mice; assay: In vivo antitumor activity, subcutaneous CT26 tumors; design: species or system mouse; conditions: for decrease in tumor volume at one month compared with the nontreated animals / decrease in tumor volume at one month compared with animals treated only with oxaliplatin: 10 mg/kg i.p.; for decrease in tumor volume at one month compared with the nontreated animals: no oxaliplatin; for decrease in tumor volume at one month compared with animals treated only with oxaliplatin: plus oxaliplatin 20 mg/kg
Protocol: as §1, §2, §3

[12] = system: Hepa 1-6, CT26 and A549 tumor cells; assay: In vitro cell proliferation assay ([3H]-thymidine), result stated for the tumor lines together; conditions: for effect on the cytostatic (antiproliferative) effect of oxaliplatin: with 10 μM oxaliplatin; for effect on the cytostatic (antiproliferative) effect of oxaliplatin / effect on the cytostatic effect of taxol / effect on the cytostatic effect of 5-FU: increasing concentrations of antioxidant; for effect on the cytostatic effect of taxol: with 10 μM taxol; for effect on the cytostatic effect of 5-FU: with 50 μM 5-FU; for reduction in cell proliferation: 400 μM, 48 h incubation
Protocol: as §7, §8
The following antitumor molecules: oxaliplatin (belonging to the cisplatin family); taxol; 5-fluorouracil; which are known to induce ROS production in tumor cells, were used. For each of these molecules, cell proliferation assays and cell viability tests were carried out, in the absence of antioxidant molecules, or in the presence of increasing concentrations of NAC, of MnTBAP, of CuDIPS or of MnDPDP.

[13] = 10 mg/kg i.p., three injections per week

Compound: O=c1[nH]cc(F)c(=O)[nH]1 [5-FU, 5-fluoro-1,2,3,4-tetrahydropyrimidine-2,5-dione]
- cytotoxicity at 50 µM ([1]; Homo sapiens, A549, 50 μM, no antioxidant, read-out: decrease in cell viability, antitumor agent alone, on average): 25%
- cytotoxicity at 50 µM ([2]; Mus musculus, Hepa1-6, 50 μM, no antioxidant, read-out: decrease in cell viability, antitumor agent alone, on average): 65%
- decrease in viability of normal leukocytes, antitumor agent alone ([3]; 40 mM): approximately 19%
- decrease in tumor cell proliferation, antitumor agent alone ([4]; 50 μM): 91%
- decrease in tumor cell proliferation, antitumor agent alone ([5]; 50 μM): 85%
- decrease in tumor cell proliferation, antitumor agent alone ([6]; 50 μM): 91%
- cytotoxicity at 50 µM ([7]; Mus musculus, CT26, 50 μM, no antioxidant, read-out: decrease in cell viability, antitumor agent alone, on average): 85%

Compound: CC(=O)N[C@@H](CS)C(=O)O [NAC, N-acetylcystein]
- effect on DNA impairments by mangafodipir, ROS and oxaliplatin ([8]; NAC 5 mM): partially inhibit
- effect on DNA impairment by superoxide anions (xanthine/xanthine oxidase) ([8]; NAC 5 mM, X/XO): inhibited
- effect on DNA damage by oxaliplatin coincubated with X/XO ([8]; NAC 5 mM, X/XO and low doses of oxaliplatin): decreases the damage
- effect on viability of normal human leukocytes [3]: no effect
- effect on the cytotoxic effect of taxol on normal leukocytes [3]: decreases
- effect on the cytotoxic effect of oxaliplatin on normal leukocytes [3]: decreases
- effect on the cytotoxic effect of 5-FU on normal leukocytes [3]: decreases
- effect on tumor cell viability [9]: no effect
- effect on the cytotoxic effect of oxaliplatin on tumor cells [9]: decreases
- effect on the cytotoxic activity of taxol on tumor cells [9]: does not influence
- effect on the cytotoxic activity of 5-FU on tumor cells [9]: does not modify
- increase in tumor volumes after one month compared with mice which are not given NAC ([10]; 150 mg/kg i.p., three injections per week): 50%
- effect on the inhibitory (antitumor) effect of oxaliplatin on tumor growth [10]: completely blocks
- increase in proliferation ([4]; 100 μM, 48 h incubation): 73%
- increase in proliferation ([5]; 400 μM, 48 h incubation): 45%
- increase in tumor volumes after one month compared with mice which do not receive NAC ([11]; 150 mg/kg i.p., three injections per week, mice not treated with oxaliplatin): 44%
- effect on the inhibitory effect of oxaliplatin on tumor growth ([11]; mice treated with oxaliplatin 20 mg/kg, NAC 150 mg/kg i.p.): completely blocks
- effect on the cytostatic (antiproliferative) effect of oxaliplatin [12]: reduces
- effect on the cytostatic effect of taxol [12]: reduces
- effect on the cytostatic effect of 5-FU [12]: inhibits
- increase in proliferation ([6]; 400 μM, 48 h incubation): 47%

Compound: CC(C)c1cc(C(=O)[O-])c(O)c(C(C)C)c1.CC(C)c1cc(C(=O)[O-])c(O)c(C(C)C)c1.[Cu+2] [CuDIPS, Cu[II]-[diisopropylsalicylate]]
- viability reduced by [1]: 50%
- viability reduced by [2]: 74%
- decrease in cell viability, maximum [3]: 50%
- effect on the cytotoxic effect of taxol on normal leukocytes [3]: increases
- effect on the cytotoxic effect of oxaliplatin on normal leukocytes [3]: increase
- effect on the cytotoxic effect of 5-FU on normal leukocytes [3]: increases
- effect on the cytotoxic effect of oxaliplatin on tumor cells [9]: increase
- effect on the cytotoxic activity of taxol on tumor cells [9]: increases
- effect on the cytotoxic activity of 5-FU on tumor cells [9]: increases
- decrease in tumor volume at one month compared with the nontreated animals [10, 13]: 9%
- effect on the inhibitory (antitumor) effect of oxaliplatin on tumor growth [10]: does not significantly increase
- decrease in tumor volume at one month compared with the nontreated animals ([11]; three injections per week): 28%
- decrease in tumor volume at one month compared with animals treated only with oxaliplatin ([11]; three injections per week): 31%
- reduction in cell proliferation [12]: ~90%
- effect on the cytostatic (antiproliferative) effect of oxaliplatin [12]: increase
- effect on the cytostatic effect of taxol [12]: increases
- effect on the cytostatic effect of 5-FU [12]: increase
- viability reduced by [7]: 85%

Compound: manganese dipyridoxyl phosphate [MnDPDP]
- effect on the structure of plasmid DNA (form I / II / III) [8]: induces, per se, DNA damage
- effect on viability of normal human leukocytes [3]: does not influence
- effect on the cytotoxic effect of taxol on normal leukocytes [3]: inhibits
- effect on the cytotoxic effect of oxaliplatin on normal leukocytes [3]: inhibits
- effect on the cytotoxic effect of 5-FU on normal leukocytes [3]: inhibits
- effect on tumor cell viability [9]: reduces, in a dose-dependent manner
- effect on the cytotoxic effect of oxaliplatin on tumor cells [9]: increase
- effect on the cytotoxic activity of taxol on tumor cells [9]: increases
- effect on the cytotoxic activity of 5-FU on tumor cells [9]: increases
- decrease in tumor volume at one month compared with the nontreated animals [10, 13]: 34%
- decrease in tumor volume at one month compared with animals treated only with oxaliplatin ([10]; 10 mg/kg i.p., three injections per week, plus oxaliplatin 20 mg/kg): 63%
- decrease in tumor volume at one month compared with the nontreated animals ([11]; three injections per week): 54%
- decrease in tumor volume at one month compared with animals treated only with oxaliplatin ([11]; three injections per week): 63%
- reduction in cell proliferation [12]: ~90%
- effect on the cytostatic (antiproliferative) effect of oxaliplatin [12]: increase
- effect on the cytostatic effect of taxol [12]: increases
- effect on the cytostatic effect of 5-FU [12]: increase

Compound: CC(=O)O[C@H]1C(=O)[C@@]2(C)[C@H]([C@H](OC(=O)c3ccccc3)[C@]3(O)C[C@H](OC(=O)[C@H](O)[C@@H](NC(=O)c4ccccc4)c4ccccc4)C(C)=C1C3(C)C)[C@]1(OC(C)=O)CO[C@@H]1C[C@@H]2O [taxol]
- cytotoxicity at 10 µM ([1]; Homo sapiens, A549, 10 μM, no antioxidant, read-out: decrease in cell viability, antitumor agent alone, on average): 47%
- cytotoxicity at 10 µM ([2]; Mus musculus, Hepa1-6, 10 μM, no antioxidant, read-out: decrease in cell viability, antitumor agent alone, on average): 25%
- decrease in viability of normal leukocytes, antitumor agent alone ([3]; 20 μM): approximately 50%
- decrease in tumor cell proliferation, antitumor agent alone ([4]; 10 μM): 65%
- decrease in tumor cell proliferation, antitumor agent alone ([5]; 10 μM): 85%
- decrease in tumor cell proliferation, antitumor agent alone ([6]; 10 μM): 71%
- cytotoxicity at 10 µM ([7]; Mus musculus, CT26, 10 μM, no antioxidant, read-out: decrease in cell viability, antitumor agent alone, on average): 50%

Compound: O=C(O)c1ccc(-c2c3nc(c(-c4ccc(C(=O)O)cc4)c4ccc([n-]4)c(-c4ccc(C(=O)O)cc4)c4nc(c(-c5ccc(C(=O)O)cc5)c5ccc2[n-]5)C=C4)C=C3)cc1.[Mn+3] [MnTBAP, Mn(III) tetrakis(5,10,15,20-benzoic acid)-porphyrin]
- viability reduced by [1]: 37%
- viability reduced by [2]: 62%
- decrease in cell viability, maximum [3]: 18%
- effect on the cytotoxic effect of taxol on normal leukocytes [3]: virtually no influence
- effect on the cytotoxic effect of oxaliplatin on normal leukocytes [3]: increase
- effect on the cytotoxic effect of 5-FU on normal leukocytes [3]: only a very weak influence
- effect on the cytotoxic effect of oxaliplatin on tumor cells [9]: increase
- effect on the cytotoxic activity of taxol on tumor cells [9]: increases
- effect on the cytotoxic activity of 5-FU on tumor cells [9]: increases
- decrease in tumor volume at one month compared with the nontreated animals [10, 13]: 42%
- effect on the inhibitory (antitumor) effect of oxaliplatin on tumor growth [10]: does not significantly increase
- decrease in tumor volume at one month compared with the nontreated animals ([11]; three injections per week): 59%
- decrease in tumor volume at one month compared with animals treated only with oxaliplatin ([11]; three injections per week): 35%
- reduction in cell proliferation [12]: ~90%
- effect on the cytostatic (antiproliferative) effect of oxaliplatin [12]: increase
- effect on the cytostatic effect of taxol [12]: increases
- effect on the cytostatic effect of 5-FU [12]: increase
- viability reduced by [7]: 75%

Compound: N[C@@H]1CCCC[C@H]1N.O=C([O-])C(=O)[O-].[Pt+2] [oxaliplatin, [(1R,2R)-1,2-cyclohexanediamine-N,N′][oxalate-(2-)—O,O′]platinum (II)]
- decrease in cell viability, antitumor agent alone, on average ([1]; 10 μM, no antioxidant): 28%
- decrease in cell viability, antitumor agent alone, on average ([2]; 10 μM, no antioxidant): 50%
- effect on the structure of plasmid DNA (form I / II / III) [8]: dose-dependent impairment
- decrease in viability of normal leukocytes, antitumor agent alone ([3]; 1 mM): approximately 50%
- tumor volumes compared with the nontreated animals ([10]; single injection of 20 mg/kg): divides the tumor volumes by four
- decrease in tumor cell proliferation, antitumor agent alone ([4]; 10 μM): 70%
- decrease in tumor cell proliferation, antitumor agent alone ([5]; 10 μM): 93%
- tumor volumes compared with the nontreated animals ([11]; single injection of 20 mg/kg): divides the tumor volumes in half
- decrease in tumor cell proliferation, antitumor agent alone ([6]; 10 μM): 91%
- decrease in cell viability, antitumor agent alone, on average ([7]; 10 μM, no antioxidant): 27%
